Measured values taken from BindingDB's records for PubMed 35119267 (University of Toronto Mississauga, 2022).
pIC50: −log10 of the molar value.

Target: Histone deacetylase 3 (Homo sapiens, UniProt O15379)
Test: Inhibition of full length human recombinant HDAC3 expressed in Sf9 baculovirus system using FAM-labeled acetylated peptide as substrate by measuring fluorescence intensity by EMSA method

Histone deacetylase 3, sequence (O15379 whole entry): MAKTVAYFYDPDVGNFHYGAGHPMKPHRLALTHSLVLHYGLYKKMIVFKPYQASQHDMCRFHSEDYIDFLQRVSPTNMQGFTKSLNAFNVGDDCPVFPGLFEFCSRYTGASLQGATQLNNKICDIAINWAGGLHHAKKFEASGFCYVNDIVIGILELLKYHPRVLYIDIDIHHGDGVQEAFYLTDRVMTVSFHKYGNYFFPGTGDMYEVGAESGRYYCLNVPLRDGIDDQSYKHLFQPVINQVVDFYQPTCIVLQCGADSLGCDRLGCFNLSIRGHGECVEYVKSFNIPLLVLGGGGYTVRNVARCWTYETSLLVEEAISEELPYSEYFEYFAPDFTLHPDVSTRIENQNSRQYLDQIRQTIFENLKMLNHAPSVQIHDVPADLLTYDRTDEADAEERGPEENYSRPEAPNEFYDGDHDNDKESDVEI

O=C(NO)c1ccc(CN(C2CC2)S(=O)(=O)c2cc(F)c(F)c(F)c2F)cc1
pIC50: < 6.00
